Experimental data from US20200031778A1, “NOVEL 5-SUBSTITUTED IMIDAZOLYLMETHYL DERIVATIVES” (Bayer CropScience Aktiengesellschaft, priority 2016, published 2020).

Assay: Log P by HPLC on reversed phase columns (EEC directive 79/831 Annex V.A8; methods [a], [b], [c])
Format: physicochemical
Procedure: Measurement of Log P values was performed according to EEC directive 79/831 Annex V.A8 by HPLC (High Performance Liquid Chromatography) on reversed phase columns with the following methods: • ^[a] Log P value is determined by measurement of LC-UV, in an acidic range, with 0.1% formic acid in water and acetonitrile as eluent (linear gradient from 10% acetonitrile to 95% acetonitrile). • ^[b] Log P value is determined by measurement of LC-UV, in a neutral range, with 0.001 molar ammonium acetate solution in water and acetonitrile as eluent (linear gradient from 10% acetonitrile to 95% acetonitrile). • ^[c] Log P value is determined by measurement of LC-UV, in an acidic range, with 0.1% phosphoric acid and acetonitrile as eluent (linear gradient from 10% acetonitrile to 95% acetonitrile).
If more than one Log P value is available within the same method, all the values are given and separated by “+”.
Calibration was done with straight-chain alkan2-ones (with 3 to 16 carbon atoms) with known Log P values (measurement of Log P values using retention times with linear interpolation between successive alkanones). Lambda-max-values were determined using UV-spectra from 200 nm to 400 nm and the peak values of the chromatographic signals.

Row | SMILES | LogP
1 | CC(O)(Cn1cncc1F)c1cnc(Oc2ccc(Br)cc2)cc1C(F)(F)F (single isomer, unassigned) [I-220] | 2.37^[a]
2 | CC(O)(Cn1cncc1F)c1cnc(Oc2ccc(Br)cc2)cc1C(F)(F)F (single isomer, unassigned) [I-221] | 2.39^[a]
3 | CCCC(C)C(O)(Cn1cncc1C#N)c1ccc(Cl)cc1Cl (single isomer, unassigned) [I-315] | 3.63^[a]
4 | CCCC(C)C(O)(Cn1cncc1C#N)c1ccc(Cl)cc1Cl (single isomer, unassigned) [I-316] | 3.72^[a]
5 | CCC(C)C(O)(Cn1cncc1C#N)c1ccc(Cl)cc1 (single isomer, unassigned) [I-325] | 2.73^[a]
6 | CCC(C)C(O)(Cn1cncc1C#N)c1ccc(Cl)cc1 (single isomer, unassigned) [I-326] | 2.78^[a]
7 | CCCC(C)C(O)(Cn1cncc1C#N)c1ccc(Cl)cc1 (single isomer, unassigned) [I-327] | 3.08^[a]
8 | CCCC(C)C(O)(Cn1cncc1C#N)c1ccc(Cl)cc1 (single isomer, unassigned) [I-328] | 3.15^[a]
9 | CC(O)(Cn1cncc1Br)c1ccc(Oc2ccc(Br)cc2)cc1Cl (stereo not drawn) [1-174] | 2.96^[a]
10 | OC(Cn1cncc1Cl)c1ccc(Oc2ccc(Cl)cc2)cc1Cl (stereo not drawn) [I-01] | 2.64^[a]
11 | Cc1ccc(Oc2ccc(C(O)Cn3cncc3Cl)c(Cl)c2)cc1 (stereo not drawn) [I-02] | 2.50^[a]
12 | OC(Cn1cncc1Cl)c1ccc(Oc2ccc(F)cc2)cc1Cl (stereo not drawn) [I-03] | 2.28^[a]
13 | OC(Cn1cncc1Cl)c1ccc(Oc2ccc(OC(F)(F)F)cc2)cc1Cl (stereo not drawn) [I-04] | 2.82^[a]
14 | OC(Cn1cncc1Cl)c1ccc(Oc2ccc(OC(F)(F)F)cc2)c(Br)c1 (stereo not drawn) [I-05] | 2.82^[a]
15 | N#Cc1ccc(Oc2ccc(C(O)Cn3cncc3Cl)c(Cl)c2)cc1 (stereo not drawn) [I-06] | 2.03^[a]
16 | COc1cc(F)ccc1C(O)Cn1cncc1Cl (stereo not drawn) [I-07] | 1.07^[a]
17 | OC(Cn1cncc1Cl)c1ccc(Oc2ccc(I)cc2)cc1Cl (stereo not drawn) [I-08] | 2.94^[a]
18 | OC(Cn1cncc1Cl)c1ccc(Oc2ccc(C(F)(F)F)cc2)cc1Cl (stereo not drawn) [I-09] | 2.82^[a]

Row | SMILES | LogP
19 | N#Cc1cncn1CC(O)c1ccc(Oc2ccc(Cl)nc2)cc1C(F)(F)F (stereo not drawn) [I-10] | 2.59^[a]
20 | OC(Cn1cncc1Cl)c1ccc(Oc2ccc(Br)cc2)cc1Cl (stereo not drawn) [I-11] | 2.75^[a]
21 | OC(Cn1cncc1Cl)c1ccc(Oc2ccc(C(F)(F)F)cc2)c(Br)c1 (stereo not drawn) [I-12] | 2.75^[a]
22 | OC(Cn1cncc1Cl)c1ccc(Oc2ccc(C(F)(F)F)cc2)cc1 (stereo not drawn) [I-13] | 2.37^[a]
23 | OC(Cn1cncc1Br)c1ccc(Oc2ccc(Cl)cc2)cc1Cl (stereo not drawn) [I-14] | 2.60^[a]
24 | OC(Cn1cncc1Cl)c1ccc(Oc2ccc(Cl)cc2)cc1 (stereo not drawn) [I-15] | 2.18^[a]
25 | COc1ccc(Oc2ccc(C(O)Cn3cncc3Cl)c(Cl)n2)c(Cl)c1 (stereo not drawn) [I-16] | 2.23^[a]
26 | OC(Cn1cncc1Br)c1ccc(Oc2ccc(Cl)nc2)nc1Cl (stereo not drawn) [I-17] | 1.69^a
27 | OC(Cn1cncc1Br)c1ccc(Oc2ccc(Cl)cc2)cc1 (stereo not drawn) [I-18] | 2.23^[a]
28 | OC(Cn1cncc1Cl)c1ccc(Oc2ccc(Cl)nc2)cc1C(F)(F)F (stereo not drawn) [I-19] | 2.14^[a]
29 | OC(Cn1cncc1Cl)c1ccc(Oc2ccc(Br)cc2)cc1C(F)(F)F (stereo not drawn) [I-20] | 2.96^[a]
30 | OC(Cn1cncc1Cl)c1ccc(Oc2ccc(Cl)cc2)cc1C(F)(F)F (stereo not drawn) [I-21] | 2.86^[a]
31 | N#Cc1cncn1CC(O)c1ccc(Oc2ccc(Cl)cc2)cc1Cl (stereo not drawn) [I-22] | 3.19^[a]
32 | OC(Cn1cncc1Cl)c1ccc(Oc2ccc(Cl)cc2)cc1Br (stereo not drawn) [I-23] | 2.54^[a]
33 | OC(Cn1cncc1Br)c1ccc(Oc2ccc(Cl)cc2)cc1Br (stereo not drawn) [I-24] | 2.68^[a]
34 | OC(Cn1cncc1Cl)c1cnc(Oc2ccc(Cl)cc2)cc1C(F)(F)F (stereo not drawn) [I-25] | 2.55^[a]
35 | OC(Cn1cncc1Br)c1ccc(Oc2ccc(Br)cc2)cc1C(F)(F)F (stereo not drawn) [I-26] | 3.02^[a]
36 | OC(Cn1cncc1Br)c1ccc(Oc2ccccc2)cc1Cl (stereo not drawn) [I-27] | 2.21^[a]
